Experimental data from patent US10487094B1, “Bergenin thiodipropionic acid ester with antioxidant activity and a method of improving the antioxidant property of ganoderma lucidum spore oil using the same” (SHAANXI UNIVERSITY OF SCIENCE AND TECHNOLOGY, priority 2018, dated 2019).

Assays:
[1] = DPPH radical scavenging activity of sample and control solutions; assay type: biochemical; conditions: for Scavenging activity: 0.2 mmol/L DPPH, 30 min, 517 nm, n = 3
Source text: In the DPPH molecule, due to the presence of multiple electron-withdrawing —NO2 and large π bonds of the benzene ring, nitrogen free radical is stabilized. Its methanol solution is purple and has a maximum absorption peak at 517 nm. After the addition of an antioxidant, DPPH captures an electron to be paired with the free electron, and the purple fades and turns into a yellow substance. The absorption at 517 nm disappears, and the degree of fading is quantitatively related to the number of electrons it captures. Based on this principle, a spectrophotometer is used to detect the change of the absorbance of the DPPH radical and the sample solution, and the ability of the sample to provide hydrogen atoms and scavenge free radicals can be measured.
Preparation of DPPH Solution: Measuring Exact Amount of 1,1-diphenyl-2-picryl hydrazyl (DPPH) and dissolving in methanol to prepare a 0.2 mmol/L DPPH Solution, Stored at 0° C. in Dark
Preparation of sample solutions: Vitamin C (positive control), bergenin thiodipripionic acid ester (sample), bergenin (control), thiodipropionic acid (control), mixture of bergenin and thiodipropionic acid (control). The sample solution was serially diluted with acetonitrile, and four groups of controls were separately dissolved in a test tube with a certain amount of methanol to prepare the same concentration gradient as the sample. Four corresponding groups of control solutions were prepared in the same way.
2 mL of the sample solution (Table 1: B), 2 mL 0.2 mmol/L DPPH solution was added, the mixture was mixed and reacted at room temperature in dark for 30 minutes, and methanol was then added to adjust final volume. The absorbance Ai was measured at 517 nm. 2 mL control solution and 2 mL methanol were mixed, and the absorbance Aj was measured. 2 mL DPPH solution and 2 mL methanol were mixed, and the absorbance A0 was measured.
2 mL of the control solutions (Table 1: C, D, E), 2 mL 0.2 mmol/L DPPH solution was added, the mixture was mixed and reacted at room temperature in dark for 30 minutes, and methanol was then added to adjust final volume. The absorbance Ai was measured at 517 nm. 2 mL control solution and 2 mL methanol were mixed, and the absorbance Aj was measured. 2 mL DPPH solution and 2 mL methanol were mixed, and the absorbance A0 was measured. The scavenging activity of the sample solution and control solutions is calculated according to the following calculation formula. Scavenging activity (%)=[1−(Ai−Aj)/Ao]*100%

[2] = DPPH radical scavenging activity of Ganoderma lucidum spore oil with and without bergenin thiodipripionic acid ester; assay type: biochemical; conditions: added at 0.2%, 0.4%, 0.6%

Q: Which results are given for `COc1c(O)cc2c(c1O)[C@@H]1O[C@H](CO)[C@@H](O)[C@H](O)[C@H]1OC2=O` [C, Bergenin]?
A: Scavenging activity ([1]; 0.04 mg/ml): 8.63%; Scavenging activity ([1]; 0.08 mg/ml): 12.25%; Scavenging activity ([1]; 0.16 mg/ml): 19.80%; Scavenging activity ([1]; 0.83 mg/ml): 25.59%; Scavenging activity ([1]; 1.66 mg/ml): 41.86%; Scavenging activity ([1]; 8.28 mg/ml): 59.12%; Scavenging activity ([1]; 16.56 mg/ml): 94.78%; Scavenging activity ([1]; 24.84 mg/ml): 94.87%; Scavenging activity ([1]; 33.12 mg/ml): 95.18%

Q: With `O=C(O)CCSCCC(=O)O` [D, Thiodipropionic acid] as the compound, how does the Scavenging activity ([1]; 0.04 mg/ml) read?
A: The Scavenging activity was 1.96%.

Q: What about the Scavenging activity ([1]; 0.08 mg/ml) of the same compound?
A: Its Scavenging activity is 8.73%.

Q: And the Scavenging activity ([1]; 0.16 mg/ml)?
A: Its Scavenging activity is 9.07%.

Q: What about the Scavenging activity ([1]; 0.83 mg/ml) of the same compound?
A: Its Scavenging activity is 9.18%.

Q: And the Scavenging activity ([1]; 1.66 mg/ml)?
A: The Scavenging activity was 9.41%.

Q: What about the Scavenging activity ([1]; 8.28 mg/ml) of the same compound?
A: Its Scavenging activity is 10.56%.

Q: What about the Scavenging activity ([1]; 16.56 mg/ml) of the same compound?
A: The Scavenging activity was 11.83%.

Q: What about the Scavenging activity ([1]; 24.84 mg/ml) of the same compound?
A: Its Scavenging activity is 13.09%.

Q: What about the Scavenging activity ([1]; 33.12 mg/ml) of the same compound?
A: The Scavenging activity was 14.47%.

Q: For `O=C1O[C@H]([C@@H](O)CO)C(O)=C1O` [Vc, Vitamin C], which Scavenging activity ([1]; 0.04 mg/ml) is on record?
A: The Scavenging activity was 94.90%.

Q: What about the Scavenging activity ([1]; 0.08 mg/ml) of the same compound?
A: Its Scavenging activity is 94.90%.

Q: And the Scavenging activity ([1]; 0.16 mg/ml)?
A: Its Scavenging activity is 95.03%.

Q: What about the Scavenging activity ([1]; 0.83 mg/ml) of the same compound?
A: The Scavenging activity was 95.03%.

Q: What about the Scavenging activity ([1]; 1.66 mg/ml) of the same compound?
A: Its Scavenging activity is 98.67%.

Q: And the Scavenging activity ([1]; 8.28 mg/ml)?
A: The Scavenging activity was 98.92%.

Q: What about the Scavenging activity ([1]; 16.56 mg/ml) of the same compound?
A: The Scavenging activity was 99.00%.

Q: What about the Scavenging activity ([1]; 24.84 mg/ml) of the same compound?
A: Its Scavenging activity is 99.00%.

Q: And the Scavenging activity ([1]; 33.12 mg/ml)?
A: The Scavenging activity was 99.00%.

Q: With `COc1c(O)cc2c(c1O)C1OC(COC(=O)CCSCCC(=O)OCC3OC4c5c(cc(O)c(OC)c5O)C(=O)OC4C(O)C3O)C(O)C(O)C1OC2=O` (centres unmarked) [B, bis((3,4,8,10-tetrahydroxy-9-methoxy-6-oxo-2,3,4,4a,6,10b-hexahydropyrano[3,2-c]isochromen-2-yl)methyl) 3,3′-thiodipropionate] as the compound, how does the “effect on antioxidant capacity of Ganoderma lucidum spore oil” value [2] read?
A: Its value is “improves the antioxidant capacity of Ganoderma lucidum spore oil”.

Q: And the Scavenging activity ([1]; 0.04 mg/ml)?
A: Its Scavenging activity is 28.01%.

Q: What about the Scavenging activity ([1]; 0.08 mg/ml) of the same compound?
A: The Scavenging activity was 37.78%.

Q: What about the Scavenging activity ([1]; 0.16 mg/ml) of the same compound?
A: The Scavenging activity was 51.33%.

Q: And the Scavenging activity ([1]; 0.83 mg/ml)?
A: Its Scavenging activity is 60.22%.

Q: What about the Scavenging activity ([1]; 1.66 mg/ml) of the same compound?
A: Its Scavenging activity is 76.33%.

Q: And the Scavenging activity ([1]; 8.28 mg/ml)?
A: The Scavenging activity was 82.56%.

Q: What about the Scavenging activity ([1]; 16.56 mg/ml) of the same compound?
A: The Scavenging activity was 95.67%.

Q: And the Scavenging activity ([1]; 24.84 mg/ml)?
A: The Scavenging activity was 96.22%.

Q: What about the Scavenging activity ([1]; 33.12 mg/ml) of the same compound?
A: Its Scavenging activity is 96.22%.

Q: And the “scavenging ability compared with bergenin (C), thiodipropionic acid (D) and their 2:1 mixture (E)” value ([1]; at the same concentration)?
A: Its value is “significantly better”.
